Columns and labels:
[1] = system: HeLa cells; assay: Flow cytometry detection of senescence in drug or radiation treated cancer cells; format: cell-based, human
Procedure: FIG. 16 is a graph showing detection of senescence in human cancer cells via flow cytometry of HeLa cells without treatment, or with CPT, CPT/CHX, or radiation treatment. Probe concentration, 10 μM. λex=640 nm; PerCP bandpass filter at 675/25 nm. ***P<0.001.
(§1) With the confidence of our probe being able to detect β-gal in live cells, we moved further to evaluate whether it could differentiate senescent cells and normal cells. Human cervical cancer cells (HeLa) and metastatic breast cancer cells (MCF7), were used in all four groups of cells evaluated. Senescence in HeLa and MCF7 cells were induced using camptothecin (CPT), an inhibitor of DNA topoisomerase I that could cause lethal DNA strand breaks^59. […] Radiation therapy is another effective method for cancer treatment in clinic; it can also induce cell cycle arrest leading to senescence. All four groups of cells, with no drug treatment, with CPT treatment, with both CPT and CHX treatment, or with 10 Gy radiation treatment, were then incubated with our NIR-BG probe, followed by flow cytometry (FIGS. 16-19).

[2] = system: MCF7 cells; assay: as above; format: cell-based, human
Procedure: FIG. 18 is a graph showing Flow cytometry of MCF7 cells without treatment, or with CPT, CPT/CHX, or radiation treatment. Probe concentration, 10 μM. λex=640 nm; PerCP bandpass filter at 675/25 nm. ***P<0.001.
as §1

[3] = system: MCF7 cells; assay: Western blot of cell lysates for β-gal, p16 and p21; format: cell-based, human
Excerpt: FIG. 22 is a western blot of β-gal, p16, and p21 expression in MCF7 cells without drug treatment, with CPT or radiation treatment. ***P<0.001, **P<0.005.
FIG. 23 is a quantification of FIG. 22.
(§2) Cell cycle inhibitors p21 and p16 are often expressed by senescent cells^1. Therefore, we examined the cell lysates of all cell samples from the imaging studies using Western blot (FIGS. 20-24). […] In addition to HeLa cells, MCF7 cells also expressed higher levels of p16 and p21 upon CPT treatment (FIGS. 22, 23). The Western blot results confirmed the senescent state of these drug or radiation treated cells used in the imaging experiments.

[4] = system: HeLa cells; assay: as above; format: cell-based, human
Excerpt: FIG. 20 is a western blot of cell lysates of β-gal, p16, and p21 expression in HeLa cells without drug treatment, with CPT or radiation treatment. ***P<0.001, **P<0.005.
FIG. 21 is a quantification of FIG. 20.
as §2

[5] = system: HeLa tumors; assay: HeLa tumor growth with and without CPT treatment; format: in vivo; details: HeLa xenografted mice, systemic treatment
Excerpt: (The tumors of control group reached the maximum volume limitation and were imaged and euthanized.)

[6] = system: HeLa tumors; assay: HeLa xenografts imaging of senescence by NIR-BG1 and NIR-BG2; format: in vivo, mice; details: for fluorescence of senescent tumor relative to normal tumor: CPT vs saline, quantification of optical imaging; for fluorescence of senescent tumor relative to normal tumor / fluorescence of CPT treated tumor compared to saline treated tumor: tail vein injection
Procedure: HeLa xenografts imaging was successfully performed to further evaluate the capability of NIR-BG1 and NIR-BG2 to visualize senescence in vivo. HeLa tumor-bearing mice were treated with CPT or saline to induce the senescent cancer cells. […] Ex vivo imaging and quantitative analysis of the tumors and organs further confirmed the in vivo imaging results.

[7] = system: CT26.CL25 cells; assay: Fluorescence microscope imaging of LacZ(+) cells by NIR-BG1 and NIR-BG2; format: cell-based, mouse
Excerpt: (§3) In order to further verify that our probe can specifically detect β-gal in cells, CT26.CL25 cells were imaged with our probes and compared with the CT26.WT cells.

[8] = system: HeLa cells; assay: Imaging of β-gal in senescent and normal HeLa cells by NIR-BG1 and NIR-BG2; format: cell-based, human; details: for NIR signal in normal cells: normal HeLa cells
[9] = system: CT26.WT cells; assay: Fluorescence microscope imaging of wild type cells by NIR-BG1 and NIR-BG2; format: cell-based, mouse
Excerpt: as §3

[10] = system: CT26.WT cells
Procedure: (§6) In order to see whether our NIR-BG probe can be used for β-gal detection in live cells, we chose an engineered cell line that stably express LacZ(+), the gene that encodes β-gal. […] Cell samples after incubating with our NIR-BG probe were analyzed using flow cytometry (FIG. 13-15) and confocal microscopy (not shown).

[11] = system: HeLa cells; assay: Confocal microscopy of normal and senescent cells; format: cell-based, human
Excerpt: (§4) Since SABG is localized in the lysosome, we then performed confocal microscopy of the normal and senescent HeLa or MCF7 cells (Not shown). […] X-gal staining also verified the existence of SABG in cells after chemotherapy and radiation therapy.

[12] = system: MCF7 cells; assay: Confocal microscopy of normal and senescent cells; format: cell-based, human
Excerpt: as §4

[13] = system: CT26.CL25 and CT26.WT tumors; assay: Fluorescence imaging of CT26 tumors with and without active β-gal; format: in vivo, mice
Excerpt: In a preliminary experiment, we used the genetically modified mice colon cancer cell line CT26 to determine whether NIR-BG could differentiate tumors with and without active β-gal (Not shown). […] We also confirmed β-gal expression in resected whole tumor and tumor slides (Not shown).

[14] = system: CT26.WT cells; assay: Confocal fluorescence microscopy, wild type control cells; format: cell-based, mouse; details: after 4-hour incubation
Procedure: (§7) In order to see whether our NIR-BG probe can be used for β-gal detection in live cells, we chose an engineered cell line that stably express LacZ(+), the gene that encodes β-gal. CT26.CL25, a mouse colon fibroblast carcinoma cell line that express β-gal, was therefore used in our initial live cell experiments. […] Cell samples after incubating with our NIR-BG probe were analyzed using flow cytometry (FIG. 13-15) and confocal microscopy (not shown).

[15] = system: CT26.WT cells; assay: Flow cytometry, negative control cells; format: cell-based, mouse; details: same treatment, probe 10 μM, λex=640 nm
Procedure: FIG. 14 is a graph showing flow cytometry detection of negative control CT26.WTcells probe (10 μM), λex=640 nm.
(§5) FIG. 15 depicts the quantification of the mean fluorescence intensity in FIGS. 13 and 14.

[16] = system: HeLa tumors; assay: Fluorescence imaging of chemotherapy-induced senescence in HeLa xenografts (NIR-BG); format: in vivo, mice; details: 675 nm excitation and 720 nm emission
Procedure: We then moved on to HeLa xenografted mice models to see whether probe NIR-BG could visualize chemotherapy-induced senescence in tumors. (FIGS. 26-28) Tumor-bearing mice were first systemically treated with CPT or saline before the probe NIR-BG was injected. […] We were delighted to find that NIR-BG behaved similarly in the drug-treated mice (with drug-induction triggered expression of β-gal) to the CT26 tumor models (with genetically expressed β-gal). […] While not depicted, resected intact whole tumor staining, histochemical staining with X-gal and immunofluorescent staining of tumor tissue with antibodies against β-gal further confirmed the probe activation in senescent tumors.

[17] = system: β-galactosidase
Excerpt: FIG. 25A is absorbance and emission spectra of the unactivated NIR-BG probe by β-galactosidase.
FIG. 25B is absorbance and emission spectra of the activated NIR-BG probe by β-galactosidase.

[18] = system: CT26.CL25 cells; assay: Confocal fluorescence microscopy of LacZ(+) live cells; format: cell-based, mouse
Procedure: as §7

[19] = system: β-gal in LacZ(+) cells (CT26.CL25); assay: Flow cytometry detection of β-gal in LacZ(+) live cells; format: cell-based, mouse; details: CT26.CL25, 1 hour and 4 hours, probe 10 μM, λex=640 nm
Procedure: FIG. 13 is a graph showing flow cytometry detection of β-gal by the NIR-BG probe in LacZ(+) cells (CT26.CL25) probe (10 μM), λex=640 nm.
as §5

[20] = system: CT26.CL25 cells
Procedure: as §6

[21] = system: β-gal; details: cited from earlier work

Compound: C[C@@H]1C[C@@H]([C@H](O)CC2CC(=O)NC(=O)C2)C(=O)[C@@H](C)C1 [CHX, cycloheximide, reference compound]
- NIR-BG fluorescence in cells treated with both CPT and CHX compared to the CPT-treated group [1]: significantly reduced
- NIR-BG fluorescence in cells treated with both CPT and CHX compared to the CPT-treated group ([2]; MCF7): significantly reduced

Compound: CC[C@@]1(O)C(=O)OCc2c1cc1n(c2=O)Cc2cc3ccccc3nc2-1 [CPT, camptothecin]
- p16 and p21 expression upon treatment [3]: higher levels
- β-gal levels compared with the control cells [3]: elevated
- p16 and p21 expression compared with normal cells [4]: both increased
- β-gal levels compared with the control cells [4]: elevated
- tumor growth compared to saline only [5]: significantly inhibited

Compound: CCC[N+]1=C(/C=C/C2=C3Oc4cc(OCc5ccc(O[C@@H]6O[C@H](CO)[C@H](O)[C@H](O)[C@H]6O)cc5)ccc4C=C3CCC2)C(C)(C)c2ccccc21 [NIR-BG1]
- fluorescence of senescent tumor relative to normal tumor [6]: 2.84 times
- fluorescence of CPT treated tumor compared to saline treated tumor [6]: significantly increased fluorescence
- NIR fluorescence [7]: high NIR fluorescence
- NIR signal in normal cells [8]: no significant signal
- NIR signal in senescent cells ([8]; senescent HeLa cells): showed NIR signals
- signal in the NIR channel [9]: background signal

Compound: CCC[N+]1=C(/C=C/C2=C3Oc4cc(OCc5ccc(O[C@@H]6O[C@H](CO)[C@H](O)[C@H](O)[C@H]6O)cc5)c(C(F)F)cc4C=C3CCC2)C(C)(C)c2ccccc21 [NIR-BG2]
- signal and accumulation in the tumors compared with NIR-BG1 [6]: much higher signal and extended accumulation
- fluorescence of senescent tumor relative to normal tumor [6]: 3.06 times
- fluorescence of CPT treated tumor compared to saline treated tumor [6]: significantly increased fluorescence
- NIR fluorescence [7]: high NIR fluorescence
- NIR signal compared with NIR-BG1 [7]: significantly higher
- NIR signal in normal cells [8]: no significant signal
- NIR signal compared with NIR-BG1 ([8]; senescent HeLa cells): significantly higher
- NIR signal in senescent cells ([8]; senescent HeLa cells): showed NIR signals
- signal in the NIR channel [9]: background signal

Compound: CCC[N+]1=C(/C=C/C2=C3Oc4cc(O[C@@H]5O[C@H](CO)[C@H](O)[C@H](O)[C@H]5O)ccc4C=C3CCC2)C(C)(C)c2ccccc21 [NIR-BG]
- toxicity in cell culture (cell viability) [10]: did not appear toxic
- colocalization of probe signal with lysosome and β-gal in senescent cells [11]: well colocalized
- confocal fluorescence in CPT or radiation treated cells versus control cells without treatment [11]: strikingly higher
- colocalization of probe signal with lysosome and β-gal in senescent cells [12]: well colocalized
- confocal fluorescence in CPT or radiation treated cells versus control cells without treatment [12]: strikingly higher
- difference in tumor signal, CT26.CL25 versus CT26.WT tumors ([13]; 640 nm excitation and 680 nm emission): minimal
- tumor signal, LacZ(+) CT26.CL25 versus CT26.WT tumors ([13]; 1 h after probe injection, 675 nm excitation and 720 nm emission): significantly higher signals
- confocal fluorescence in the NIR channel [14]: no fluorescence
- flow cytometry fluorescence [15]: only background signal
- tumor signal of activated form, CPT treatment versus saline [16]: significantly higher signal
- maximal absorption ([17]; activated probe): 680 nm
- maximal emission ([17]; activated probe): 710 nm
- absorption peak ([17]; unactivated probe): around 640 nm
- emission peak ([17]; unactivated probe): around 660 nm
- colocalization of NIR signal with β-gal expression ([18]; CT26.CL25): highly colocalized
- confocal fluorescence signal ([18]; CT26.CL25, 1-hour probe treatment): obvious
- flow cytometry fluorescence [19]: obvious fluorescence
- toxicity in cell culture (cell viability) [20]: did not appear toxic
- flow cytometry fluorescence of CPT or radiation treated cells compared to untreated control cells ([1]; probe 10 μM, λex=640 nm): significantly higher fluorescence
- flow cytometry fluorescence of CPT or radiation treated cells compared to untreated control cells ([2]; MCF7, probe 10 μM, λex=640 nm): significantly higher fluorescence

Compound: hydroxymethyl rhodol (HMR) β-galactoside
- fluorescence turn-on ratio [21]: 1,400 fold
